Publication PMC5339874, “Fluorene-9-bisphenol is anti-oestrogenic and may cause adverse pregnancy outcomes in mice” (Nature Communications, 2017)

Experiments:
sprr2a and sprr2b = experiment: Q-RT-PCR of sprr2a and sprr2b in uteri after 10-day dosing; assay type: in vivo, mice; conditions: 10 days; P<0.05
Protocol: The uteri, ovaries and livers were collected for total RNA isolation. Total RNA was isolated using Trizol reagent (Invitrogen) and further purified by NucleoSpin RNA Clean-up (Macherey-Nagel, Germany). Fluorescence labelling of the RNA samples was performed with a Jingxin cRNA linear amplification and labelling kit (CapitalBio) according to the manufacturer's instructions. The total RNA from each pool of tissue samples (a mixture from three animals) was used for microarray analysis. Cy3 dCTP was used to label the samples. The labelled products were added to SurePrint G3 mouse gene expression 8 × 60 K microarrays (Agilent) and incubated overnight at 42 °C. Following hybridization, the gene arrays were washed and scanned using an Agilent G2565CA Microarray Scanner. Glyceraldehyde 3-phosphate dehydrogenase (GAPDH) was used as an endogenous control to monitor the quality of the target preparation. The data were processed with feature extraction software (GeneSpring GX v.11; Agilent). The raw signals were log-transformed and normalized with the percentile shift normalization method. All arrays met the minimum Agilent QA/QC standards. To verify the data from the gene array, 14 genes were chosen as candidates for Q-RT-PCR. Primers are listed in Supplementary Table 4. GAPDH was used as an endogenous control. […] The relative expression was quantified using the 2^(−ΔΔCt) method. […]

CD-1 mice = experiment: Subchronic and reproductive toxicity tests
Protocol: Immature CD-1 mice (20 days old) were obtained from Experimental Animal Tech Co. of Weitonglihua (Beijing, China) and acclimatized in an experimental environment with a temperature of 22 °C±2 °C, relative humidity between 40 and 60%, and artificial lighting in a 12 h/12 h light-dark cycle. The animals were fed ad libitum with a basic diet from the Laboratory Animal Center of the Academy of Military Medical Sciences (Beijing, China), and drinking water was provided ad libitum. […] The animals were housed five to a cage until the pairing date. The treatment via oral gavage of each mouse was performed once every 3 days beginning on PND 24. The chemicals were dissolved in peanut oil to the appropriate concentrations. The volume of vehicle or chemical solutions administered was adjusted daily based on body weight measured during the dosing period according to the volume-body weight ratio of 5 ml kg^−1 bw. On PND 60, 10 females of each group were weighed and killed by cervical dislocation. The uteri, ovaries, livers, kidneys and spleens were weighed and collected for histological analysis. At the age of PND 77, males and females were paired. Each morning, the females were examined for the presence of vaginal plugs. Gestational day 1 was defined as the day on which a vaginal plug was found. In cases where pairing was unsuccessful, females were re-mated with proven males of the same group, except that females in the 1.2 mg kg^−1 TAM group were re-mated with proven males of the control group. After a 7-day mating period, the males were weighed and killed, and organs were weighed and collected for further analysis. Cauda epididymal sperm was collected from each mouse and observed under a trinocular microscope (Olympus BX53) in physiological saline. A microscopic video was recorded and analysed for sperm quality evaluation. The treatment via oral gavage was continued for the females until day 19 of pregnancy. On post-partum days 0 and 4, the weights of the dams and pups were recorded and the pups were checked for abnormalities. On post-partum day 4, the dams were weighed and killed, and their organs were weighed and collected for further analysis. The ovaries and uteri were examined for the numbers of corpora lutea and implantation sites, respectively. Finally, the non-pregnant and nulliparous females were killed for histopathological analysis. For histological examination, organs and tissues were fixed in formalin fixation, embedded in paraffin, and sectioned serially at 5 μm. Slides were stained with hematoxylin and eosin (H&E), and observed under a light microscope (Olympus BX53).

SMILES: Oc1ccc(C2(c3ccc(O)cc3)c3ccccc3-c3ccccc32)cc1 [BHPF, 9,9-bis(4-hydroxyphenyl)-fluorene]
- doses significantly down-regulating sprr2a and sprr2b in uteri (sprr2a and sprr2b): ≥ 9.26 mg kg^−1 bw d^−1
- Absorption sites in the uterus of dams (CD-1 mice; 0.4 mg kg^−1 3-d^−1 BHPF): 0.14±0.36
- Birth weight of pups (CD-1 mice; 0.4 mg kg^−1 3-d^−1 BHPF): 1.66±0.21
- Body weight of female pups at PND 4 (CD-1 mice; 0.4 mg kg^−1 3-d^−1 BHPF): 3.08±0.57
- Body weight of male pups at PND 4 (CD-1 mice; 0.4 mg kg^−1 3-d^−1 BHPF): 3.30±0.56
- Implantation sites in the uterus of dams (CD-1 mice; 0.4 mg kg^−1 3-d^−1 BHPF): 15.21±2.02
- Number of dams (CD-1 mice; 0.4 mg kg^−1 3-d^−1 BHPF): 14
- Number of live pups per litter (CD-1 mice; 0.4 mg kg^−1 3-d^−1 BHPF): 12.71±2.55
- weight gain of males from PND 30 (CD-1 mice; 0.4 mg kg^−1 3-d^−1 BHPF): higher weight gain than the control
- non-pregnant females (CD-1 mice; 0.4 mg kg^−1 bw 3-d^−1 BHPF): 1
- Absorption sites in the uterus of dams (CD-1 mice; 2 mg kg^−1 3-d^−1 BHPF): 0.33±0.65
- Birth weight of pups (CD-1 mice; 2 mg kg^−1 3-d^−1 BHPF): 1.59±0.24
- Body weight of female pups at PND 4 (CD-1 mice; 2 mg kg^−1 3-d^−1 BHPF): 3.04±0.62
- Body weight of male pups at PND 4 (CD-1 mice; 2 mg kg^−1 3-d^−1 BHPF): 3.18±0.59
- Implantation sites in the uterus of dams (CD-1 mice; 2 mg kg^−1 3-d^−1 BHPF): 15.42±2.02
- Number of dams (CD-1 mice; 2 mg kg^−1 3-d^−1 BHPF): 12
- Number of live pups per litter (CD-1 mice; 2 mg kg^−1 3-d^−1 BHPF): 11.67±2.06
- non-pregnant females (CD-1 mice; 2 mg kg^−1 bw 3-d^−1 BHPF): 3
- Absorption sites in the uterus of dams (CD-1 mice; 10 mg kg^−1 3-d^−1 BHPF): 0.64±0.67
- Birth weight of pups (CD-1 mice; 10 mg kg^−1 3-d^−1 BHPF): 1.54±0.18
- Body weight of female pups at PND 4 (CD-1 mice; 10 mg kg^−1 3-d^−1 BHPF): 3.05±0.44
- Implantation sites in the uterus of dams (CD-1 mice; 10 mg kg^−1 3-d^−1 BHPF): 16.09±1.81
- Number of dams (CD-1 mice; 10 mg kg^−1 3-d^−1 BHPF): 11
- Number of live pups per litter (CD-1 mice; 10 mg kg^−1 3-d^−1 BHPF): 12.73±1.85
- non-pregnant females (CD-1 mice; 10 mg kg^−1 bw 3-d^−1 BHPF): 3
- fetal death (CD-1 mice; 10 mg kg^−1 bw 3-d^−1 BHPF, a pregnant female): a dead fetus in late pregnancy was observed in the uterus
- Absorption sites in the uterus of dams (CD-1 mice; 50 mg kg^−1 3-d^−1 BHPF): 1.09±1.38
- Birth weight of pups (CD-1 mice; 50 mg kg^−1 3-d^−1 BHPF): 1.64±0.16
- Body weight of female pups at PND 4 (CD-1 mice; 50 mg kg^−1 3-d^−1 BHPF): 3.20±0.53
- Body weight of male pups at PND 4 (CD-1 mice; 50 mg kg^−1 3-d^−1 BHPF): 3.21±0.51
- Implantation sites in the uterus of dams (CD-1 mice; 50 mg kg^−1 3-d^−1 BHPF): 14.45±2.42
- Number of dams (CD-1 mice; 50 mg kg^−1 3-d^−1 BHPF): 11
- Number of live pups per litter (CD-1 mice; 50 mg kg^−1 3-d^−1 BHPF): 10.27±2.53
- late abortion (CD-1 mice; 50 mg kg^−1 bw 3-d^−1 BHPF): one case of late abortion
- maternal death (CD-1 mice; 50 mg kg^−1 bw 3-d^−1 BHPF): one unexplained maternal death during parturition
- non-pregnant females (CD-1 mice; 50 mg kg^−1 bw 3-d^−1 BHPF): 2
- weight gain before pairing (CD-1 mice; BHPF 0.4–50, TAM 1.2 mg kg^−1 bw 3-d^−1): no significant differences in weight gain
- doses causing adverse pregnancy outcomes (CD-1 mice; CD-1 mice): ≥ 2 mg kg^−1 bw 3-d^−1
- doses inducing atrophic endometria (CD-1 mice; CD-1 mice): ≥ 0.4 mg kg^−1 bw 3-d^−1
- pregnancy-related weight gain (CD-1 mice; all BHPF-treated groups): significantly decreased
- analysis of ovary sections (CD-1 mice; females at PND 60): retarded follicular development and reduced the numbers of corpora lutea
- histopathological examination of uteri (CD-1 mice; females at PND 60, 36-day exposure): serious atrophic endometria
- weights of the ovaries on both sides (CD-1 mice; females at PND 60, BHPF groups, 1.2 mg kg^−1 bw 3-d^−1 TAM): not affected
- doses significantly decreasing uterine weights and inducing atrophic endometria (CD-1 mice; intact female mice, oral gavage 36 days from PND 24): ≥ 2 mg kg^−1 3-d^−1
- sperm quality (CD-1 mice; males PND 84): No obvious adverse effects
- pathological examination of seminal vesicle (CD-1 mice; males PND 84, TAM 1.2, BHPF 50 mg kg^−1 bw 3-d^−1 group): one case of unilateral seminal vesicle atrophy
- histopathological examination of ovaries (CD-1 mice; non-pregnant females): haemorrhagic ovary cysts occurred
